Measurements reported in the NIST ThermoML archive (doi:10.1016/j.jct.2012.11.014).

Test: xn = mol fraction of the nth substance listed
Settings: 101 kPa, Liquid; for speed of sound: Frequency=2 MHz, Linear variable-path acoustic interferometer; for viscosity: Oscillating disk viscometry; for mass density: Vibrating tube method

C[NH+](C)C.O=P([O-])(O)O [trimethylammonium dihydrogen phosphate] + C[S+](C)[O-]
Settings	mass density, 308.15 K [kg/m3]	mass density, 313.15 K [kg/m3]	speed of sound, 308.15 K [m/s]	speed of sound, 313.15 K [m/s]	viscosity, 308.15 K [mPa·s]	viscosity, 313.15 K [mPa·s]
x1 = 0.0264	1093.45	1089.15	1459	1442	1.78	1.65
x1 = 0.0397	1096.91	1092.77	1460	1443	1.83	1.7
x1 = 0.0708	1104.49	1100.69	1461	1444	1.97	1.83
x1 = 0.1172	1114.06	1109.86	1464	1449	2.18	2.02
x1 = 0.1673	1124.47	1121.53	1468	1452	2.41	2.22
x1 = 0.2284	1136.12	1134.54	1475	1460	2.67	2.45
x1 = 0.2934	1147.36	1145.27	1485	1471	2.94	2.69
x1 = 0.3413	1157.63	1156.54	1492	1479	3.13	2.86
x1 = 0.4012	1167.76	1167.52	1504	1493	3.37	3.07
x1 = 0.4659	1181.31	1181.73	1518	1507	3.62	3.3
x1 = 0.5306	1196.24	1196.14	1531	1522	3.86	3.51
x1 = 0.6022	1214.48	1214.06	1548	1540	4.13	3.75
x1 = 0.6728	1232.06	1232.95	1567	1560	4.38	3.98
x1 = 0.7504	1256.27	1256.04	1588	1581	4.67	4.24
x1 = 0.8137	1276.94	1276.61	1605	1601	4.91	4.44
x1 = 0.8805	1301.06	1299.14	1625	1623	5.16	4.67
x1 = 0.9643	1334.09	1331.48	1649	1651.4	5.47	4.95
x1 = 0.9858	1342.26	1339.35	1656	1659	5.56	5.02
x1 = 1	1347.59	1344.52	1661	1664	5.61	5.07
